The values below are quoted from earlier work in patent US20200360268A1, “INJECTABLE PHARMACEUTICAL COMPOSITION CONTAINING MELOXICAM, AND PREPARATION METHOD THEREFOR” (Jiangsu Hengrui Medicine Co., Ltd., priority 2017, published 2020).

Broadly, the solubility is the dissolved amount per volume that the medium holds.

The conditions of this series: pH 1.2 and 4.0.

Values after ≈ are worked out from the molar mass of the structure shown.

Consider `Cc1cnc(NC(=O)C2=C(O)c3ccccc3S(=O)(=O)N2C)s1` [Meloxicam], for which the solubility was 0.6 µg/mL (≈ 1.71 µM).
